This note sets out measurements from the Deep4Chem optical property database.

The nature of the data set: solvent given as SMILES.
Setting [1] is: in c1cc(-c2cccc(-n3c4ccccc4c4ccccc43)c2)cc(-n2c3ccccc3c3ccccc32)c1.

Molecules are shown by their SMILES. Several values for one entry are separate records, joined by “and”; a condition that tells them apart may be missing. Identical values can stand only once.

With `C[C@H](Nc1c2ccc(=[N+]3CCCCC3)cc-2oc2cc(N3CCCCC3)ccc12)C(=O)OC(C)(C)C`, the emission maximum (in ClCCl) turned out to be 544 nm.
Where the note is “in C1COCCO1”, `COc1ccc(/C=C/C2=CC(/C=C/c3ccc(OC)cc3)=[N+]3C2=C(c2ccc(-c4ccc5ccccc5n4)s2)c2c(/C=C/c4ccc(OC)cc4)cc(/C=C/c4ccc(OC)cc4)n2[B-]3(F)F)cc1` came in with an emission maximum of 732 nm.
As to `CCCCCCCCCc1csc2cc(-c3cc(-c4cc5scc(CCCCCCCCC)c5s4)c4ccc5c(-c6cc7scc(CCCCCCCCC)c7s6)cc(-c6cc7scc(CCCCCCCCC)c7s6)c6ccc3c4c65)sc12`, the emission maximum (in ClC(Cl)Cl) came to 490 nm.
For the molecule `CC(C)(C)c1cc2ccc3cc(C(C)(C)C)cc4c(N(c5ccccc5)c5ccccc5)cc(c1)c2c34`, the emission maximum runs as follows: (in C1CCOC1) 455.01 nm; (in CC#N) 483.88 nm; (in CCCCCC) 415 nm.
As to `COc1ccc(C2=C(c3ccc(OC)cc3)c3cccc4c3c(cc3nc5ccccc5nc34)O2)cc1`, the emission maximum (in ClCCl) was found to be 572 nm.
`O=C1c2ccccc2C(=O)C1C1C(=O)c2c3ccccc3cc3cc4ccccc4c1c23` (stereo unspecified) yielded an emission maximum (in C1CCOC1) of 569 nm; an emission maximum (in CC#N) of 591 nm; an emission maximum (in CCCCCC) of 538 nm; an emission maximum (in Cc1ccccc1) of 563 nm; an emission maximum (in ClCCl) of 583 nm.
Regarding `c1ccc(N(c2ccccc2)c2ccc(-c3ncc(-c4ccc(-c5cnc(-c6ccc(N(c7ccccc7)c7ccccc7)cc6)s5)s4)s3)cc2)cc1`, the emission maximum (in CO) came to 503 nm.
As for `CCOC(=O)c1c(-c2c(Cl)c3cc(C)ccc3oc2=O)nn(-c2ccccc2)c1C(=O)OCC`, the emission maximum (in ClCCl) turned out to be 417 nm.
Turning to `CC1(C)C(/C=C/C2=C(c3ccc(C(=O)O)cc3)C(=C/C=C3/N(CCCCS(=O)(=O)[O-])c4ccc(S(=O)(=O)[O-])cc4C3(C)C)/CCC2)=[N+](CCCCS(=O)(=O)[O-])c2ccc(S(=O)(=O)[O-])cc21`, the emission maximum (in CO) was 785 nm and 790 nm.
With `C=C(C)C(CN1C(=O)c2cccc3c2c(cc2nc(C)oc23)C1=O)OO` (stereo unspecified), the emission maximum (in CCO) amounted to 412 nm.
Molecule `c1ccc(C2=C(c3ccccc3)c3cccc4c3c(cc3nc5c(-c6ccccc6)ccc(-c6ccccc6)c5nc34)O2)cc1` displayed an emission maximum (in ClCCl) of 551 nm.
Consider `C[Si]1(C)c2ccc(C#Cc3ccccc3)cc2C=Cc2cc(C#Cc3ccccc3)ccc21`, for which the emission maximum (in ClCCl) is reported as 375 nm.
Turning to `N#Cc1ncc(-c2c3ccccc3c(-c3cnc(C#N)nc3)c3ccccc23)cn1`, the emission maximum by setting is: (in CCO) 520 nm; (in ClCCl) 464 nm.
As for `Clc1ccc2nc3cc4ccccc4cc3c(-c3ccccc3)c2c1`, for the setting “in ClCCl”, the emission maximum turned out to be 527 nm.
Take `CC[N+]1=C(/C=C/C=C/C=C/C=C2/N(CCCCCC(=O)O)c3ccccc3C2(C)C)C(C)(C)c2cc(S(=O)(=O)[O-])ccc21`: the emission maximum reads like this: (in CO) 775 nm; (in O) 769 nm.
For the molecule `Cc1ccc(C(=O)OCc2c(C)c(=O)n3c(=O)c(C)c(C)n23)cc1`, the emission maximum (in CCO) was 460 nm.
`c1ccc2c(c1)OP1(=NP(Oc3ccc4ccc5cccc6ccc3c4c56)(Oc3ccc4ccc5cccc6ccc3c4c56)=NP(Oc3ccc4ccc5cccc6ccc3c4c56)(Oc3ccc4ccc5cccc6ccc3c4c56)=N1)Oc1ccccc1-2`: the emission maximum (in ClCCl) was 457 nm.
The molecule `CC1(C)C(/C=C/C2=C(Oc3ccc(CCN=C=S)cc3Cl)C(=C/C=C3/N(CCCS(=O)(=O)[O-])c4ccccc4C3(C)C)/CCC2)=[N+](CCCS(=O)(=O)[O-])c2ccccc21` gave an emission maximum (in CO) of 797 nm.
As for `F[B-]1(F)OC(c2ccccc2)=Nc2sc(-c3ccccc3)n[n+]21`, the emission maximum runs as follows: (in C1CCOC1) 402 nm; (in CC#N) 415 nm; (in CCO) 409 nm; (in CCOC(C)=O) 411 nm; (in CN(C)C=O) 419 nm; (in Cc1ccccc1) 410 nm. The emission maximum is recorded as 413 nm (in ClC(Cl)Cl) and 412 nm (in ClCCl).
On to `CCCCCCc1ccc(-n2c3[n+](c4c5ccccc5c5ccccc5c42)[B-](C)(C)c2cc(N(c4ccccc4)c4ccccc4)ccc2-3)cc1`, for which the emission maximum came out at 435 nm (in C1CCOC1), 446 nm (in CC#N), 428 nm (in Cc1ccccc1) and 437 nm (in ClCCl).
In turn, `Cc1ccccc1C1=C2C=c3c(oc4ccc(C(C)(C)C)cc34)=[N+]2[B-](F)(F)n2c1cc1c3cc(C(C)(C)C)ccc3oc12` yielded an emission maximum (in C1CCCCC1) of 602 nm, an emission maximum (in CCOC(C)=O) of 602 nm and an emission maximum (in CO) of 600.5 nm.
`N#Cc1cc2nc3c(nc2cc1C#N)C1c2ccc(N(c4ccccc4)c4ccccc4)cc2C3c2ccc(N(c3ccccc3)c3ccccc3)cc21` gave an emission maximum (in C1CCCCC1) of 487 nm, an emission maximum (in CC#N) of 492 nm, an emission maximum (in Cc1ccccc1) of 552 nm and an emission maximum (in ClCCl) of 497 nm.
Regarding `O=c1[nH]c(=O)c2scc([C@H]3C[C@H](O)[C@@H](CO)O3)c2[nH]1`, the emission maximum by setting is: (in CC#N) 345 nm; (in CCOC(C)=O) 343 nm; (in CO) 351 nm; (in O) 351 nm.
Molecule `O=C(O)COc1cccc(-c2c3nc(cc4ccc([nH]4)c(-c4cccc(OCC(=O)O)c4)c4nc(cc5ccc2[nH]5)C=C4)C=C3)c1` showed an emission maximum (in CS(C)=O) of 633 nm.
Take `F[B-]12OC(c3ccccc3)=Nc3cccc([n+]31)N=C(c1ccccc1)O2`: where the note is “in ClCCl”, the emission maximum amounted to 456 nm.
`CCCC1=Cc2nc1ccc1[nH]c(cc1CCC)c1nc(ccc3[nH]c2cc3CCC)C(CCC)=C1` returned an emission maximum (in Cc1ccccc1) of 641 nm.
For `O=C(c1ccc(N2c3ccccc3Oc3ccccc32)cc1)c1ccc2sc3ccccc3c2c1`, the emission maximum is, setting by setting: (in C1CCOC1) 594 nm; (in c1ccc2c(c1)c1ccccc1n2-c1ccc(-c2ccc(-n3c4ccccc4c4ccccc43)cc2)cc1) 524 nm.
Consider `CCN1C(=CC2=C([O-])C(=Cc3[se]c4ccccc4[n+]3CC)C2=O)[Se]c2ccccc21`, for which the emission maximum stood at 688 nm (in CO) and 714 nm (in ClC(Cl)Cl).
As to `c1ccc(-c2nc(-c3ccc(N4c5ccccc5Sc5ccccc54)cc3)nn2-c2ccc(N3c4ccccc4Sc4ccccc43)cc2)nc1`, for the setting “in ClCCl”, the emission maximum is 490 nm.
Regarding `Cc1cc(-n2c3ccccc3c3ccccc32)c(-n2c3ccccc3c3ccccc32)cc1C#N`, the emission maximum came out at 485 nm under setting [1], 489 nm (in c1ccc2c(c1)c1ccccc1n2-c1ccc2sc3ccc(-n4c5ccccc5c5ccccc54)cc3c2c1), 495 nm (in c1ccc2c(c1)c1ccccc1n2-c1ccc2sc3ccc(-n4c5ccccc5c5cccnc54)cc3c2c1) and 498 nm (in c1ccc2c(c1)c1cccnc1n2-c1ccc2sc3ccc(-n4c5ccccc5c5cccnc54)cc3c2c1).
In turn, `CCCCCCCCOc1ccc2c3cccc4c(OCCCCCCCC)ccc(c5cccc1c52)c43` registered an emission maximum (in C1CCOC1) of 468.03 nm; an emission maximum (in Cc1ccccc1) of 467.99 nm; an emission maximum (in ClC(Cl)(Cl)Cl) of 471.01 nm; an emission maximum (in ClC(Cl)Cl) of 471.01 nm; an emission maximum (in ClCCl) of 469.99 nm; an emission maximum (in c1ccncc1) of 474.01 nm.
For the molecule `CC1(C)Nc2cc3nc4cc(F)c(F)cc4nc3cc2N1`, the emission maximum (in CCO) came to 496 nm.
Under “in C1CCOC1”, `Cc1cc(C)c([B-]2(c3c(C)cc(C)cc3C)[O+]=P(c3ccccc3)(c3ccccc3)c3cc(-c4ccc(C(F)(F)F)cc4)sc3-c3sc(-c4ccc(C(F)(F)F)cc4)cc32)c(C)c1` registered an emission maximum of 468 nm.
On to `c1ccc2c(c1)-c1ccccc1C21c2ccccc2N(c2ccc(-c3nc([C@]45CC6CC(C[C@@H](C6)C4)C5)nc([C@]45C[C@H]6C[C@@H](C[C@H](C6)C4)C5)n3)cc2)c2ccccc21`, for which the emission maximum by setting is: (in CC(C)(C)c1ccc(-n2c3ccc([Si](c4ccccc4)(c4ccccc4)c4ccccc4)cc3c3cc([Si](c4ccccc4)(c4ccccc4)c4ccccc4)ccc32)cc1) 448.69 nm; (in Cc1ccccc1) 454.71 nm.
For the molecule `CB1C=Cc2ccc3ccccc3c2N1c1ccccc1`, the emission maximum (in C1CCCCC1) came to 387 nm.
In the case of `CC1(C)c2ccccc2N(c2ccc3c(c2)c2cc(N4c5ccccc5C(C)(C)c5ccccc54)ccc2c2nc4ccccc4nc32)c2ccccc21`, the emission maximum runs as follows: (in Cc1ccccc1) 553 nm; under setting [1], 565 nm.
`CCCCCCC(CCCCCC)N1C(=O)c2cccc3c(-c4ccc(-c5ccc(OC)cc5)cc4)ccc(c23)C1=O` returned an emission maximum (in CCCCCC) of 426.8 nm; an emission maximum (in CCCCCCCCCCCCCC) of 436.7 nm; an emission maximum (in CCCCCCCCCCCO) of 518.2 nm; an emission maximum (in CCCCO) of 556.6 nm; an emission maximum (in CN(C)C=O) of 583.4 nm; an emission maximum (in Cc1ccccc1) of 454.6 nm. The emission maximum (in ClC(Cl)Cl) was 492.2 nm.
`C/C=C/C=C/C1=NC(=C\c2ccc([O-])cc2)/C(=O)N1C`: under “in O”, the emission maximum turned out to be 565 nm.
Take `CC(=O)Nc1ccc2c(c1)c(=O)c1cc(NC(C)=O)ccc1n2CCCCCC(=O)O`: the emission maximum (in O) is 463 nm.
On to `CB1C=Cc2ccc3ccccc3c2N1`, for which, for the setting “in C1CCCCC1”, the emission maximum came to 373 nm.
As for `COc1ccc(-c2cc(-c3ccc(C(F)(F)F)cc3)nn2C)cc1`, the emission maximum (in ClCCl) is recorded as 367 nm.
Turning to `CN(C)c1ccc(/C=C/c2nc3c4ccccc4c4ccccc4c3[nH]2)cc1`, the emission maximum came out at 463 nm (in C1CCOC1); 436 nm (in C1COCCO1); 430 nm (in CC1CCCCC1); 476 nm (in CC#N); 460 nm (in CCOC(C)=O); 448 nm (in CCOCC). Moreover, the emission maximum is, setting by setting: (in CN(C)C=O) 478 nm; (in COC(C)=O) 471 nm; (in CS(C)=O) 480 nm; (in Cc1ccccc1) 436 nm; (in ClC(Cl)Cl) 467 nm.
